# Results taken from ChEMBL document CHEMBL5614425, “Novel inhibitors of bromodomain and extra-terminal domain trigger cell death in breast cancer cell lines” (2024).
# How the values were obtained:
# [1] = target: T1, NAD-dependent protein deacetylase sirtuin-2 (Homo sapiens) (UniProt Q8IXJ6); assay: Inhibition of SIRT2 (unknown origin) using IU179 as substrate incubated for 30 mins by Fluor de Lys sirtuin assay relative to control; set-up: concentration or dose not given beside the values
# T1 sequence (whole entry): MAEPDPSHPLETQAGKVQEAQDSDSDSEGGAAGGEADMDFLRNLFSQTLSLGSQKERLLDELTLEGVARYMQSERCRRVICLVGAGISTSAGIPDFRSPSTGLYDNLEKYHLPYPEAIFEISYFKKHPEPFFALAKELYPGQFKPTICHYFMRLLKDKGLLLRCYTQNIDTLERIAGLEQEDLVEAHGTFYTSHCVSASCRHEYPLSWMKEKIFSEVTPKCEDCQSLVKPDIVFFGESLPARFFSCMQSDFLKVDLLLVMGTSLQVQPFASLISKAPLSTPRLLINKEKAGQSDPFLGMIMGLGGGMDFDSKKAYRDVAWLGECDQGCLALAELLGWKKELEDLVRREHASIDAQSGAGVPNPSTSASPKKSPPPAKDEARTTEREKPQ
# T47D [2] = assay: Antiproliferative activity against human T47D cells assessed as decrease in cell numbers at 10 to 100 uM incubated for 24 hrs by PI staining based analysis relative to control; assay type: functional; set-up: scale not given: the % may be the effect or the level left; conditions: dose 10-100 µM
# T47D [3] = assay: Antitumor activity against human T47D cell spheroids assessed as reduction in spheroid growth at 10 to 100 uM measured for >200 hrs by Image J analysis relative to control; assay type: functional; set-up: scale not given: the % may be the effect or the level left; conditions: dose 10-100 µM
# T47D [4] = assay: Antitumor activity against human T47D cell spheroids assessed as reduction in spheroid growth at 100 uM measured for >200 hrs by Image J analysis relative to control; assay type: functional; set-up: scale not given: the % may be the effect or the level left
SMILES,inhibition [1] [%],Activity (T47D [2]) [%],Activity (T47D [3]) [%],Activity (T47D [4]) [%]
NC(=O)C(NC(=O)CCCOc1ccc2c(c1)CCC(=O)N2)C(N)=O,< 50,,,
Cc1ccc(NC(=O)c2ccc(S(=O)(=O)N3CCCCCC3)cc2)c(C)c1,< 50,>40,~20,100
CCOc1ccc(C(C)NC(=O)COc2ccc3c(c2)CCC(=O)N3)cc1 (centres undefined),< 50,,,
COc1cc(/C=N/c2ccc(N3N=C(C)CC3=O)cc2)ccc1O,50,,,
CC1CCCCN1S(=O)(=O)c1ccc(C(=O)Nc2ccc(N3CCOCC3)c3ccncc23)cc1 (centres undefined),84,,,
Cc1cnc2c(c1)N(C(=O)COc1ccc(Cl)c(C)c1)CCC2,< 50,,,
